Experimental data from publication PMC8954004, “Biochemical Basis of Xylooligosaccharide Utilisation by Gut Bacteria” (International Journal of Molecular Sciences, 2022).

T1: Lr-XylC (Limosilactobacillus reuteri, UniProt A0A0S4NRU4)
T1 construct: recombinant E. coli Rosetta (DE3), pET28a, His-tag, any signal peptide excluded; ~75 kDa; catalytic Asp382 and Glu415
T1 sequence (A0A0S4NRU4 1-679): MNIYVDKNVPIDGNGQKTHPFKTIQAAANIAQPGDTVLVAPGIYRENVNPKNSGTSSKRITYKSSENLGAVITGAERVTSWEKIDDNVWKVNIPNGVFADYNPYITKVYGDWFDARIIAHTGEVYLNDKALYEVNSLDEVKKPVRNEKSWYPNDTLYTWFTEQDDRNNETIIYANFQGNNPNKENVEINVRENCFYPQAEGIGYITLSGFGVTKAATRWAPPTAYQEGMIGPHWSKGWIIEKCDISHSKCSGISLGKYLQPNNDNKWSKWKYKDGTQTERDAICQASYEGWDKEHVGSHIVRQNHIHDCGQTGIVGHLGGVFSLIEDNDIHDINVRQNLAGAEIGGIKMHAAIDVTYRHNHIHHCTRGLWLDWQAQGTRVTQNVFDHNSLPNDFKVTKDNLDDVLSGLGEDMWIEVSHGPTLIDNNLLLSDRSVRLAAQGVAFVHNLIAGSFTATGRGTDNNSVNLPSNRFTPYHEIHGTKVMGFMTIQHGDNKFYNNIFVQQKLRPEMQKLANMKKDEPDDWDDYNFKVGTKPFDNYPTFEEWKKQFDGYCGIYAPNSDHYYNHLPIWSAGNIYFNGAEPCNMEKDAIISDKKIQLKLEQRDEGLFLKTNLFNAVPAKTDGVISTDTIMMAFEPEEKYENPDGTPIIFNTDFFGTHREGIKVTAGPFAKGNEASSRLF


What was measured:
Lr-XylC = biological target: T1, Lr-XylC; test: inhibition of pNP-Xyl hydrolysis, absorbance […] nm; type: biochemical; details: 2 mM pNP-Xyl, 50 mM sodium phosphate pH 5.7, 45 °C, 5 min; 200 mM xylose
Bp-XylX-2 = biological target: T2, Bp-XylX-2 (Blautia producta, UniProt A0ABX6JGM7); test: inhibition of pNP-Xyl hydrolysis, absorbance […] nm; type: biochemical; details: 2 mM pNP-Xyl, 50 mM sodium phosphate pH 5.7, 45 °C, 5 min; 200 mM xylose
T2 construct: gene GXM18_22300; recombinant E. coli Rosetta (DE3), pET28a, His-tag, any signal peptide excluded; ~75 kDa; catalytic Asp386 and Glu409; strain proteome UP000464715

Bp-XylX-1 = biological target: T3, Bp-XylX-1 (Blautia producta, UniProt A0ABX6JHR7); test: inhibition of pNP-Xyl hydrolysis, absorbance […] nm; type: biochemical; details: 2 mM pNP-Xyl, 50 mM sodium phosphate pH 5.7, 45 °C, 5 min; 200 mM xylose
T3 construct: gene GXM18_27615; recombinant E. coli Rosetta (DE3), pET28a, His-tag, any signal peptide excluded; ~75 kDa; catalytic Asp371 and Glu408; strain proteome UP000464715

purified protein = substrate: O=[N+]([O-])c1ccc(O[C@@H]2OC[C@@H](O)[C@H](O)[C@H]2O)cc1; test: purified protein; type: biochemical, Limosilactobacillus reuteri; details: sodium phosphate pH 5.7 (50 mM in Table 1, 10 mM in methods), 45 °C, 10 min, 1.3 µM enzyme

T2 sequence (A0ABX6JGM7 entry or part of it): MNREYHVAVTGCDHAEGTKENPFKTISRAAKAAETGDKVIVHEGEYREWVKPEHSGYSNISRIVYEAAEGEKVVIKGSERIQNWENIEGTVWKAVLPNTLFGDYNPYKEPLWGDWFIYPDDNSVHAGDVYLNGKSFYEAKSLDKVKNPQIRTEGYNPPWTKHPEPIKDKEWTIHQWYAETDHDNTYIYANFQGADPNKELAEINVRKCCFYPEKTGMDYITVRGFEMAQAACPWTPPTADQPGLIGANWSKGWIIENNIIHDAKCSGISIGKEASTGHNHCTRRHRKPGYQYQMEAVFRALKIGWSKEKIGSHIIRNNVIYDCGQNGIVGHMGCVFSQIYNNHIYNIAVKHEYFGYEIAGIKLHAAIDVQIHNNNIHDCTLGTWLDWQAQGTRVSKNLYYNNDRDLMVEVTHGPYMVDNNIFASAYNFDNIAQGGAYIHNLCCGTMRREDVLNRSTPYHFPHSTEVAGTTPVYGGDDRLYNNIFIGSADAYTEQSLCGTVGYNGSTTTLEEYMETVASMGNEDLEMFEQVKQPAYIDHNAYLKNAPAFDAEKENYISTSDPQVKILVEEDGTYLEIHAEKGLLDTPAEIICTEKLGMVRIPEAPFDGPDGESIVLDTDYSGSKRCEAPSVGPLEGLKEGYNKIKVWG
T3 sequence (A0ABX6JHR7 entry or part of it): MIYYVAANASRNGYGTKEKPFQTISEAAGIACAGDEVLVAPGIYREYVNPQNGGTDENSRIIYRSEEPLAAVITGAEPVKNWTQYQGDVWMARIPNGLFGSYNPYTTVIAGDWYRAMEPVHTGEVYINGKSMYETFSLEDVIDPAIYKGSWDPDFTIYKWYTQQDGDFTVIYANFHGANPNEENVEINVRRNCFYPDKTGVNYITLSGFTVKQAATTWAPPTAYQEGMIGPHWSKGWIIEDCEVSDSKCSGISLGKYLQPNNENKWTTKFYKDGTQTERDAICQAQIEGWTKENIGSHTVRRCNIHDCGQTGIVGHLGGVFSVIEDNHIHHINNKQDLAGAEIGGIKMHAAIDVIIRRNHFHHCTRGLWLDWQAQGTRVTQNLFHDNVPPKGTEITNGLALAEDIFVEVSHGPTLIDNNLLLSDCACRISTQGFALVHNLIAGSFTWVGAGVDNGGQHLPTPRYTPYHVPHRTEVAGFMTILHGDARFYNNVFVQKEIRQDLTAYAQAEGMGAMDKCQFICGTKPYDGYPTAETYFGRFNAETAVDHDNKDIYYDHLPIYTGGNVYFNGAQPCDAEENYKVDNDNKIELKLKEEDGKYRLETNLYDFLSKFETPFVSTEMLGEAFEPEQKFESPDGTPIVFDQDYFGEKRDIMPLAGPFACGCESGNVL

Row | Molecule | % reduction in activity at 200 mM (Lr-XylC) | % reduction in activity at 200 mM (Bp-XylX-2) | % reduction in activity at 200 mM (Bp-XylX-1) | Km (purified protein) [µM] | kcat (purified protein) [s⁻¹] | kcat/Km (purified protein) [M⁻¹ s⁻¹]
1 | OC1OC[C@@H](O)[C@H](O)[C@H]1O (stereo partly drawn) [xylose] | ~ 12% | ~ 26% | ~ 42% | – | – | –
2 | Lr-XylC (Limosilactobacillus reuteri subsp. suis) (protein, recombinant E. coli Rosetta (DE3), pET28a, His-tag, any signal peptide excluded; ~75 kDa; catalytic Asp382 and Glu415) MNIYVDKNVPIDGNGQKTHPFKTIQAAANIAQPGDTVLVAPGIYRENVNPKNSGTSSKRITYKSSENLGAVITGAERVTSWEKIDDNVWKVNIPNGVFADYNPYITKVYGDWFDARIIAHTGEVYLNDKALYEVNSLDEVKKPVRNEKSWYPNDTLYTWFTEQDDRNNETIIYANFQGNNPNKENVEINVRENCFYPQAEGIGYITLSGFGVTKAATRWAPPTAYQEGMIGPHWSKGWIIEKCDISHSKCSGISLGKYLQPNNDNKWSKWKYKDGTQTERDAICQASYEGWDKEHVGSHIVRQNHIHDCGQTGIVGHLGGVFSLIEDNDIHDINVRQNLAGAEIGGIKMHAAIDVTYRHNHIHHCTRGLWLDWQAQGTRVTQNVFDHNSLPNDFKVTKDNLDDVLSGLGEDMWIEVSHGPTLIDNNLLLSDRSVRLAAQGVAFVHNLIAGSFTATGRGTDNNSVNLPSNRFTPYHEIHGTKVMGFMTIQHGDNKFYNNIFVQQKLRPEMQKLANMKKDEPDDWDDYNFKVGTKPFDNYPTFEEWKKQFDGYCGIYAPNSDHYYNHLPIWSAGNIYFNGAEPCNMEKDAIISDKKIQLKLEQRDEGLFLKTNLFNAVPAKTDGVISTDTIMMAFEPEEKYENPDGTPIIFNTDFFGTHREGIKVTAGPFAKGNEASSRLF | – | – | – | 230 ± 20 | 11.4 ± 0.2 | 49000
